Here are results for eight compounds from patent publication US20070185104A1, “Benzoxazole acetonitriles” (APPLIED RESEARCH SYSTEMS ARS HOLDING N.V., priority 2003, published 2007).

Some results are limits rather than exact numbers.

human GSK3 beta, sequence (P49841 whole entry): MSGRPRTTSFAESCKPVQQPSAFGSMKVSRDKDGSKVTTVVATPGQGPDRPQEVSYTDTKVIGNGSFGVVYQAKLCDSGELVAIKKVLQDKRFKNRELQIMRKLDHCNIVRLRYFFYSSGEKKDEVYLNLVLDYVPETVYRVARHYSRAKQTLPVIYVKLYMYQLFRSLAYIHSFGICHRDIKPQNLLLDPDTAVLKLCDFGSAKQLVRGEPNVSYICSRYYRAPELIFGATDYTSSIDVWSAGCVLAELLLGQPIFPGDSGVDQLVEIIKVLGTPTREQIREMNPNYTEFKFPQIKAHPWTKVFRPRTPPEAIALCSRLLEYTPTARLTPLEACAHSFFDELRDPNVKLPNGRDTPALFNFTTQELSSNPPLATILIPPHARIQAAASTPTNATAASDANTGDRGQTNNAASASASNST

The subject of the first test is db/db mice. The experiment in a line: Experimental model of type II diabetes (oral postprandial glycemia in db/db mice). In kind it is in vivo. The settings on record: p.o. 50 mg/kg, 4 hrs after drug administration, food intake after 20 h fasting, compared to vehicle Group 1. The protocol: b) In vivo Assay: Experimental Model of Type II Diabetes (Oral Postprandial Glycemia in db/db Mice)
The following assay aims at determining the anti-diabetic effect of the test compounds of formula (I) in a model of postprandial glycemia in db/db mice, in vivo.
The assay was performed as follows:
A total of 24 db/db mice (about 8-9 weeks; obtained from IFFACREDO, l'Arbreste, France) were fasted during 20 hours.
2 groups, each consisting of 6 animals were formed: • Group 1: The animals were administered (per os) a dose of 10 mg/kg of vehicle. • Group 2: The animals were administered (per os) a dose of 50 mg/kg of the test compound according to formula (I).
After oral administration of the compounds of formula (I) solubilized or suspended in CarboxyMethylCellulose (0.5%), Tween 20 (0.25%) and water as vehicle, the animals had access to commercial food (D04, UAR, Villemoisson/Orge, France) ad libitum. The diabetic state of the mice was verified by determining the blood glucose level before drug administration. Blood glucose and serum insulin levels were then determined 4 hrs after drug administration.
The determination of the blood glucose level was performed using a glucometer (Precision Q.I.D., Medisense, Abbot, ref. 212.62.31). […]
Changes in blood glucose and serum insulin of drug treated mice were expressed as a percentage of control (group 1: vehicle treated mice).
Consider `N#C/C(=C1\Nc2ccccc2O1)c1ccnc(NCCCN2CCCC2=O)n1` [Example 5, 1,3-benzoxazol-2(3H)-ylidene(2-{[3-(2-oxopyrrolidin-1-yl)propyl]amino}pyrimidin-4-yl)acetonitrile], for which the “blood glucose level reduced (percentage of vehicle control)” value is “about 25%”.

The same test, now with this note: p.o. 50 mg/kg, serum insulin 4 hrs after drug administration, compared to vehicle Group 1.
Regarding `N#C/C(=C1\Nc2ccccc2O1)c1ccnc(NCCCN2CCCC2=O)n1` [Example 5, 1,3-benzoxazol-2(3H)-ylidene(2-{[3-(2-oxopyrrolidin-1-yl)propyl]amino}pyrimidin-4-yl)acetonitrile], the “insulin level reduced (percentage of vehicle control)” value is “about 11%”.

The next test concerns the target human GSK3 beta (Homo sapiens, UniProt P49841). As to the kind of experiment: GSK3β in vitro assay (33P-ATP phosphorylation of phospho GS2 peptide). The settings on record: In vitro potency on human GSK3 beta; read-out: IC50 (μM) GSK3beta. In kind it is biochemical. As to the method:
GSK3β Assay (see Bioorg. Med. Chem. Lett by Naerum et al. 12 p. 1525-1528 (2002))
In a final reaction volume of 25 μl, GSK3β (h) (5-10 mU) is incubated with 8 mM MOPS pH 7.0, 0.2 mM EDTA, 20 μM […](p)EDEEE (being the GSK3 substrate; a phospho GS2 peptide), 10 mM Mg Acetate and [γ-^33P-ATP] (Specific activity approx. 500 cpm/pmol, concentration as required). The reaction is initiated by the addition of Mg^2+ [γ-^33P-ATP]. After incubation for 40 minutes at room temperature, the reaction is stopped by the addition of 5 μl of a 3% phosphoric acid solution. 10 μl of the reaction is then spotted onto a P30 filtermat and washed three times for 5 minutes in 50 mM phosphoric acid and once in methanol prior to drying and the degree of phosphorylation of the substrate is determined by scintillation counting.
A word on the IC50: it is the midpoint of a concentration-inhibition curve. For `N#C/C(=C1\Nc2ccccc2O1)c1ccnc(NC2CC2)n1` [Example 10, 1,3-benzoxazol-2(3H)-ylidene[2-(cyclopropylamino)pyrimidin-4-yl]acetonitrile], the half-maximal inhibitory concentration (IC50) is less than 10 µM. Consider `N#C/C(=C1\Nc2ccccc2O1)c1ccnc(NCc2cccnc2)n1` [Example 41, 1,3-benzoxazol-2(3H)-ylidene{2-[(pyridin-3-ylmethyl)amino]pyrimidin-4-yl}acetonitrile], for which the IC50 was less than 10 µM. Same read-out and setting: under `CC(C)OCCCNc1nccc(/C(C#N)=C2/Nc3ccccc3O2)n1` [Example 42, 1,3-benzoxazol-2(3H)-ylidene{2-[(3-isopropoxypropyl)amino]pyrimidin-4-yl}acetonitrile] stands less than 10 µM; under `Cc1cc(/C(C#N)=C2/Nc3ccccc3O2)nc(NCCCn2cncn2)n1` [Example 47], less than 10 µM. Still for that read-out and setting: the figure for `CCN1CCN(c2cc(/C(C#N)=C3/Nc4ccccc4O3)ncn2)CC1` [Example 49, 1,3-benzoxazol-2(3H)-ylidene[6-(4-ethylpiperazin-1-yl)pyrimidin-4-yl]acetonitrile] is less than 10 µM; for `CC(=O)N1CCN(C(=O)CCCNc2nccc(/C(C#N)=C3\Nc4ccccc4O3)n2)CC1` [Example 70, (2-{[4-(4-acetyl-1-piperazinyl)-4-oxobutyl]amino}-4-pyrimidinyl)(1,3-benzoxazol-2(3H)-ylidene)ethanenitrile] it is less than 10 µM. On to `CN(C)CCCC(=O)Nc1nccc(/C(C#N)=C2/Nc3ccccc3O2)n1` [Example 89, N-{4-[1,3-benzoxazol-2(3H)-ylidene(cyano)methyl]-2-pyrimidinyl}-4-(dimethylamino)butanamide], for which the IC50 was less than 10 µM.
